Like-named read-outs stand apart in the source and are kept apart here.
Assays:
[1] = tested on: interferon alpha signalling (TYK2 and JAK1), STAT3 phosphorylation; assay: Human whole blood INFα induced STAT3 phosphorylation assay; format: cell-based; conditions: compound 60 minutes at 37° C., IFNα 5000 U/ml for 15 minutes, pSTAT3 in lymphocyte population by flow cytometry, read-out: HWB IFN alpha IC50;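 further: flow cytometry with anti-pSTAT3 staining, signal as percent-positive × mean fluorescence, baseline from unstimulated wells, 11-point dilution series, IC50 as inhibition of pSTAT3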
[2] = target: recombinant human kinase domain of JAK1 (Homo sapiens (Human), UniProt P23458); assay: JAK Caliper enzyme assay at 1 mM ATP (JAK1); format: biochemical;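 further: microfluidic mobility-shift readout of synthetic fluorescent peptide phosphorylation, percent product converted from peak height, inhibition relative to DMSO-only wells as uninhibited baseline, room temperature incubation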
recombinant human kinase domain of JAK1, sequence (P23458 875-1153): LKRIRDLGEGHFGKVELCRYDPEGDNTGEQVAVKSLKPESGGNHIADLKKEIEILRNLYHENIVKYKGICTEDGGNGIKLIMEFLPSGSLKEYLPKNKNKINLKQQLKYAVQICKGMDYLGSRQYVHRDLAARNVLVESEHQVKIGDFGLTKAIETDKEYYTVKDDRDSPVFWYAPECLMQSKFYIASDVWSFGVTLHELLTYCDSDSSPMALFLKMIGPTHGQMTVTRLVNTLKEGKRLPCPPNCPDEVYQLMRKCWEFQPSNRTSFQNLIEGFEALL

[3] = target: recombinant human kinase domain of TYK2 (Homo sapiens (Human), UniProt P29597); assay: JAK Caliper enzyme assay at 1 mM ATP (TYK2); format: biochemical;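 further: microfluidic mobility-shift readout of synthetic peptide phosphorylation by TYK2, tuned to 20–30% conversion at room temperature, reaction stopped with EDTA, DMSO-only wells as uninhibited baseline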
recombinant human kinase domain of TYK2, sequence (P29597 897-1176): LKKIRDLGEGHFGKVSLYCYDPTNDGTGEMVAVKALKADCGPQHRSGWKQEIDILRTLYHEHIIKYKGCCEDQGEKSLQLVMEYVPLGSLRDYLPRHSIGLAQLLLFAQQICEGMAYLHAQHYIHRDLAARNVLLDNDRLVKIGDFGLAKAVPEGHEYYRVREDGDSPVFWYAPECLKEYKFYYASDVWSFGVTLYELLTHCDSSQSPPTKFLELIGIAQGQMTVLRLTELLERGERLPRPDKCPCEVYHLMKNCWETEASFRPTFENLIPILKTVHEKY

[4] = target: recombinant human kinase domain of JAK2 (Homo sapiens (Human), UniProt O60674); assay: JAK Caliper enzyme assay at 1 mM ATP (JAK2); format: biochemical;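 further: microfluidic mobility-shift read-out of fluorescent synthetic peptide phosphorylation, percent product converted from peak heights, room temperature, DMSO-only wells as uninhibited baseline, inhibition curve fit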
recombinant human kinase domain of JAK2, sequence (O60674 849-1124): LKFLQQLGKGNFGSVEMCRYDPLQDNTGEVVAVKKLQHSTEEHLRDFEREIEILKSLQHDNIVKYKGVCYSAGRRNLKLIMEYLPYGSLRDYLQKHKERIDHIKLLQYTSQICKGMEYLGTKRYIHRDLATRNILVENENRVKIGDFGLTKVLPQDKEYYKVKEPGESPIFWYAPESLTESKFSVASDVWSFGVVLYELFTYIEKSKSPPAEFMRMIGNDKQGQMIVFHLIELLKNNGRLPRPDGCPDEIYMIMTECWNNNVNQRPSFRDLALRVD

[5] = target: recombinant human kinase domain of JAK3 (Homo sapiens (Human), UniProt P52333); assay: JAK Caliper enzyme assay at 1 mM ATP (JAK3); format: biochemical;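 further: microfluidic mobility-shift readout of synthetic peptide phosphorylation, percent product converted from peak heights, normalized to DMSO-only wells as uninhibited baseline, room temperature incubation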
recombinant human kinase domain of JAK3, sequence (P52333 822-1111): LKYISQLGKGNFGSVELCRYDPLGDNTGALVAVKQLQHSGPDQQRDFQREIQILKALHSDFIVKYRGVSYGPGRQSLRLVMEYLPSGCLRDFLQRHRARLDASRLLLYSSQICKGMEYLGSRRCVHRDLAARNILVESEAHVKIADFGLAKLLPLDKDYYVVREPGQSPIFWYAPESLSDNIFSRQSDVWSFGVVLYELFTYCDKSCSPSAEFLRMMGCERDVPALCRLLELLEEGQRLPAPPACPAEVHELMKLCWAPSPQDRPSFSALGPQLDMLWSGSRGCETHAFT

[6] = 1 mM ATP, read-out: IC50 (nM) JAK1
[7] = 1 mM ATP, read-out: IC50 (nM) JAK3
[8] = 1 mM ATP, read-out: IC50 (nM) TYK2

SMILES | IC50 [1] [nM] | IC50 [2, 6] [nM] | IC50 [3] [nM] | IC50 [4] [nM] | IC50 [5, 7] [nM] | IC50 [3, 8] [nM] | IC50 [2] [nM] | IC50 [5] [nM]
C[C@@H](CO)c1ccc(Nc2nccc(N3C[C@H]4CC[C@@H](C3)N4C(=O)[C@@H]3CC3(F)F)n2)cn1 (single isomer, unassigned) [Example 11] | 134 | 139 | 40 | 141 | > 10000 | – | – | –
C[C@H](CO)c1ccc(Nc2nccc(N3C[C@H]4CC[C@@H](C3)N4C(=O)[C@@H]3CC3(F)F)n2)cn1 (single isomer, unassigned) [Example 12] | 88 | 79 | 28 | 80 | > 10000 | – | – | –
CNC(=O)c1ncc(Nc2nccc(N3C[C@H]4CC[C@@H](C3)N4C(=O)[C@@H]3CC3(F)F)n2)cc1C (single isomer, unassigned) [Example 33] | 122 | 62 | – | 116 | 9280 | 15 | – | –
CNC(=O)c1ncc(Nc2nccc(N3C[C@H]4CC[C@@H](C3)N4[C@H]3C[C@@H](C#N)C3)n2)cc1C (single isomer, unassigned) [Example 61] | 135 | – | – | 44 | – | 18 | 31 | 4080
CCNC(=O)N1[C@@H]2CC[C@H]1CN(c1ccnc(Nc3cn[nH]c3)n1)C2 [Example 5, (1R,5S)—N-ethyl-3-[2-(1H-pyrazol-4-ylamino)pyrimidin-4-yl]-3,8-diazabicyclo[3.2.1]octane-8-carboxamide] | 105 | – | – | 477 | > 10000 | – | – | –
CCNC(=O)c1ncc(Nc2nccc(N3C[C@H]4CC[C@@H](C3)N4C(=O)C3CC3)n2)cc1C [Example 14, 5-({4-[(1R,5S)-8-(cyclopropylcarbonyl)-3,8-diazabicyclo[3.2.1]oct-3-yl]pyrimidin-2-yl}amino)-N-ethyl-3-methylpyridine-2-carboxamide] | 287 | – | – | – | > 10000 | 79 | – | –
O=C([C@@H]1CC1(F)F)N1[C@@H]2CC[C@H]1CN(c1ccnc(Nc3cnc(OCCO)c(Cl)c3)n1)C2 [Example 23, [(1R,5S)-3-(2-{[5-chloro-6-(2-hydroxyethoxy)pyridin-3-yl]amino}pyrimidin-4-yl)-3,8-diazabicyclo[3.2.1]oct-8-yl][(1S)-2,2-difluorocyclopropyl]methanone] | 428 | – | – | – | – | – | – | –
CCn1cc(Nc2nccc(N3C[C@H]4CC[C@@H](C3)N4C(=O)[C@@H]3C[C@H]3C#N)n2)cn1 [Example 24, (1R,2R)-2-{[(1R,5S)-3-{2-[(1-ethyl-1H-pyrazol-4-yl)amino]pyrimidin-4-yl}-3,8-diazabicyclo[3.2.1]oct-8-yl]carbonyl}cyclopropanecarbonitrile] | 43 | 13 | – | 67 | 4990 | – | – | –
CNC(=O)c1ncc(Nc2nccc(N3C[C@H]4CC[C@@H](C3)N4C(=O)[C@@H]3C[C@H]3C#N)n2)cc1C [Example 32, 5-({4-[(1R,5S)-8-{[(1R,2R)-2-cyanocyclopropyl]carbonyl}-3,8-diazabicyclo[3.2.1]oct-3-yl]pyrimidin-2-yl}amino)-N,3-dimethylpyridine-2-carboxamide] | 115 | – | – | 140 | > 10000 | – | – | –
Cc1cc(Nc2nccc(N3C[C@H]4CC[C@@H](C3)N4C(=O)[C@@H]3CC3(F)F)n2)cnc1C(N)=O [Example 35, 5-({4-[(1R,5S)-8-{[(1S)-2,2-difluorocyclopropyl]carbonyl}-3,8-diazabicyclo[3.2.1]oct-3-yl]pyrimidin-2-yl}amino)-3-methylpyridine-2-carboxamide] | 90 | 170 | – | 337 | > 10000 | – | – | –
CNC(=O)c1ncc(Nc2nccc(N3C[C@H]4CC[C@@H](C3)N4C(=O)[C@H]3C[C@@H]3F)n2)cc1C [Example 44, 5-({4-[(1R,5S)-8-{[(1R,2S)-2-fluorocyclopropyl]carbonyl}-3,8-diazabicyclo[3.2.1]oct-3-yl]pyrimidin-2-yl}amino)-N,3-dimethylpyridine-2-carboxamide] | 562 | 475 | – | 854 | > 10000 | – | – | –
CNC(=O)c1ncc(Nc2nccc(N3C[C@H]4CC[C@@H](C3)N4C(=O)[C@@H]3C[C@H]3F)n2)cc1C [Example 45, 5-({4-[(1R,5S)-8-{[(1S,2R)-2-fluorocyclopropyl]carbonyl}-3,8-diazabicyclo[3.2.1]oct-3-yl]pyrimidin-2-yl}amino)-N,3-dimethylpyridine-2-carboxamide] | 110 | 46 | – | 100 | 7400 | – | – | –
O=C([C@@H]1CC1(F)F)N1[C@@H]2CC[C@H]1CN(c1ccnc(Nc3cn[nH]c3)n1)C2 [Example 51, ((1R,5S)-3-(2-((1H-pyrazol-4-yl)amino)pyrimidin-4-yl)-3,8-diazabicyclo[3.2.1]octan-8-yl)((S)-2,2-difluorocyclopropyl)methanone] | 20 | 13 | – | 97 | 8610 | – | – | –
Cn1cc(Nc2nccc(N3C[C@H]4CC[C@@H](C3)N4Cc3ccns3)n2)cn1 [Example 55, N-(1-methyl-1H-pyrazol-4-yl)-4-[(1R,5S)-8-(1,2-thiazol-5-ylmethyl)-3,8-diazabicyclo[3.2.1]oct-3-yl]pyrimidin-2-amine] | 168 | 35 | – | 221 | 8620 | – | – | –
Cn1cc(Nc2nccc(N3C[C@H]4CC[C@@H](C3)N4Cc3cnoc3)n2)cn1 [Example 58, N-(1-methyl-1H-pyrazol-4-yl)-4-[(1R,5S)-8-(1,2-oxazol-4-ylmethyl)-3,8-diazabicyclo[3.2.1]oct-3-yl]pyrimidin-2-amine] | 158 | 267 | – | – | > 10000 | 73 | – | –
Cn1cc(Nc2nccc(N3C[C@H]4CC[C@@H](C3)N4C3(CC#N)CN(S(C)(=O)=O)C3)n2)cn1 [Example 83, {3-[(1R,5S)-3-{2-[(1-methyl-1H-pyrazol-4-yl)amino]pyrimidin-4-yl}-3,8-diazabicyclo[3.2.1]oct-8-yl]-1-(methylsulfonyl)azetidin-3-yl}acetonitrile] | 85 | – | – | – | 1240 | – | – | –
CNC(=O)c1ncc(Nc2nccc(N3C[C@H]4CC[C@@H](C3)N4C(=O)NCC#N)n2)cc1C [Example 90, (1R,5S)—N-(cyanomethyl)-3-(2-{[5-methyl-6-(methylcarbamoyl)pyridin-3-yl]amino}pyrimidin-4-yl)-3,8-diazabicyclo[3.2.1]octane-8-carboxamide] | 247 | 17 | – | – | 4170 | – | – | –
Cc1cnc(Nc2ccc(OCCO)nc2)nc1N1C[C@H]2[C@@H](C)[C@@]2(NC(=O)[C@H]2C[C@@H]2C#N)C1 [Example 98, (1S,2S)-2-cyano-N-[(1S,5R,6R)-3-(2-{[6-(2-hydroxyethoxy)pyridin-3-yl]amino}-5-methylpyrimidin-4-yl)-6-methyl-3-azabicyclo[3.1.0]hex-1-yl]cyclopropanecarboxamide] | 246 | 13 | – | 147 | 2600 | – | – | –
Cn1cc(Nc2ncc(F)c(N3C[C@@]4(CO)C[C@@]4(NC(=O)[C@@H]4CC4(F)F)C3)n2)cn1 [Example 109, (1S)-2,2-difluoro-N-[(1S,5S)-3-{5-fluoro-2-[(1-methyl-1H-pyrazol-4-yl)amino]pyrimidin-4-yl}-5-(hydroxymethyl)-3-azabicyclo[3.1.0]hex-1-yl]cyclopropanecarboxamide] | 507 | 211 | – | – | > 10000 | 51 | – | –
